Experimental data from ChEMBL document CHEMBL1155953, “Synthesis and biological evaluation of C-12' substituted vinflunine derivatives” (Bioorg Med Chem Lett, 2008).

These compounds were tested on A549 (assay: Cytotoxicity against human A549 cells by SRB assay).
Assay type: functional, cell-based

| Compound | IC50 |
| --- | --- |
| CC[C@]12C=CCN3CC[C@@]4(c5cc([C@@]6(C(=O)OC)C[C@H]7C[C@@H](C(C)(F)F)CN(Cc8c6[nH]c6ccc(-c9ccoc9)cc86)C7)c(OC)cc5N(C)[C@H]4[C@@](O)(C(=O)OC)[C@@H]1OC(C)=O)[C@@H]32 | 2280 nM |
| CC[C@]12C=CCN3CC[C@@]4(c5cc([C@@]6(C(=O)OC)C[C@H]7C[C@@H](C(C)(F)F)CN(CCc8c6[nH]c6ccc(C#N)cc86)C7)c(OC)cc5N(C)[C@H]4[C@@](O)(C(=O)OC)[C@@H]1OC(C)=O)[C@@H]32 | 290 nM |
| CC[C@]12C=CCN3CC[C@@]4(c5cc([C@@]6(C(=O)OC)C[C@H]7C[C@@H](C(C)(F)F)CN(Cc8c6[nH]c6ccc(NC(=O)N(C)C)cc86)C7)c(OC)cc5N(C)[C@H]4[C@@](O)(C(=O)OC)[C@@H]1OC(C)=O)[C@@H]32 | > 100000 nM |
| CC[C@]12C=CCN3CC[C@@]4(c5cc([C@@]6(C(=O)OC)C[C@H]7C[C@@H](C(C)(F)F)CN(CCc8c6[nH]c6ccc(C(C)=O)cc86)C7)c(OC)cc5N(C)[C@H]4[C@@](O)(C(=O)OC)[C@@H]1OC(C)=O)[C@@H]32 | 4720 nM |
| CCC(=O)c1ccc2[nH]c3c(c2c1)CN1C[C@H](C[C@@H](C(C)(F)F)C1)C[C@]3(C(=O)OC)c1cc2c(cc1OC)N(C)[C@H]1[C@@](O)(C(=O)OC)[C@H](OC(C)=O)[C@]3(CC)C=CCN4CC[C@]21[C@@H]43 | 17400 nM |
| CC[C@]12C=CCN3CC[C@@]4(c5cc([C@@]6(C(=O)OC)C[C@H]7C[C@@H](C(C)(F)F)CN(Cc8c6[nH]c6ccc(C9CC9)cc86)C7)c(OC)cc5N(C)[C@H]4[C@@](O)(C(=O)OC)[C@@H]1OC(C)=O)[C@@H]32 | 120 nM |
| CCOC(=O)c1ccc2[nH]c3c(c2c1)CN1C[C@H](C[C@@H](C(C)(F)F)C1)C[C@]3(C(=O)OC)c1cc2c(cc1OC)N(C)[C@H]1[C@@](O)(C(=O)OC)[C@H](OC(C)=O)[C@]3(CC)C=CCN4CC[C@]21[C@@H]43 | 1030 nM |
| CCCCc1ccc2[nH]c3c(c2c1)CN1C[C@H](C[C@@H](C(C)(F)F)C1)C[C@]3(C(=O)OC)c1cc2c(cc1OC)N(C)[C@H]1[C@@](O)(C(=O)OC)[C@H](OC(C)=O)[C@]3(CC)C=CCN4CC[C@]21[C@@H]43 | 1880 nM |
| CCNC(=S)Nc1ccc2[nH]c3c(c2c1)CN1C[C@H](C[C@@H](C(C)(F)F)C1)C[C@]3(C(=O)OC)c1cc2c(cc1OC)N(C)[C@H]1[C@@](O)(C(=O)OC)[C@H](OC(C)=O)[C@]3(CC)C=CCN4CC[C@]21[C@@H]43 | 5680 nM |
| CC[C@]12C=CCN3CC[C@@]4(c5cc([C@@]6(C(=O)OC)C[C@H]7C[C@@H](C(C)(F)F)CN(Cc8c6[nH]c6ccc(NC(=O)N9CCOCC9)cc86)C7)c(OC)cc5N(C)[C@H]4[C@@](O)(C(=O)OC)[C@@H]1OC(C)=O)[C@@H]32 | > 100000 nM |
| CC[C@]12C=CCN3CC[C@@]4(c5cc([C@@]6(C(=O)OC)C[C@H]7C[C@@H](C(C)(F)F)CN(Cc8c6[nH]c6ccc(-c9ccc(F)cc9)cc86)C7)c(OC)cc5N(C)[C@H]4[C@@](O)(C(=O)OC)[C@@H]1OC(C)=O)[C@@H]32 | 2560 nM |
| CC[C@]12C=CCN3CC[C@@]4(c5cc([C@@]6(C(=O)OC)C[C@H]7C[C@@H](C(C)(F)F)CN(Cc8c6[nH]c6ccc(-c9ccc(Cl)cc9)cc86)C7)c(OC)cc5N(C)[C@H]4[C@@](O)(C(=O)OC)[C@@H]1OC(C)=O)[C@@H]32 | 1170 nM |
| CCc1ccc2[nH]c3c(c2c1)CCN1C[C@H](C[C@@H](C(C)(F)F)C1)C[C@]3(C(=O)OC)c1cc2c(cc1OC)N(C)[C@H]1[C@@](O)(C(=O)OC)[C@H](OC(C)=O)[C@]3(CC)C=CCN4CC[C@]21[C@@H]43 | 920 nM |
| CC[C@]12C=CCN3CC[C@@]4(c5cc([C@@]6(C(=O)OC)C[C@H]7C[C@@H](C(C)(F)F)CN(Cc8c6[nH]c6ccc(Nc9ccccc9)cc86)C7)c(OC)cc5N(C)[C@H]4[C@@](O)(C(=O)OC)[C@@H]1OC(C)=O)[C@@H]32 | 1860 nM |
| CC[C@]12C=CCN3CC[C@@]4(c5cc([C@@]6(C(=O)OC)C[C@H]7C[C@@H](C(C)(F)F)CN(CCc8c6[nH]c6ccc(NC(C)=O)cc86)C7)c(OC)cc5N(C)[C@H]4[C@@](O)(C(=O)OC)[C@@H]1OC(C)=O)[C@@H]32 | 41000 nM |
| CC[C@]12C=CCN3CC[C@@]4(c5cc([C@@]6(C(=O)OC)C[C@H]7C[C@@H](C(C)(F)F)CN(Cc8c6[nH]c6ccc(C(=O)C9CC9)cc86)C7)c(OC)cc5N(C)[C@H]4[C@@](O)(C(=O)OC)[C@@H]1OC(C)=O)[C@@H]32 | 4450 nM |
| CC[C@]12C=CCN3CC[C@@]4(c5cc([C@@]6(C(=O)OC)C[C@H]7C[C@@H](C(C)(F)F)CN(Cc8c6[nH]c6ccc(C(=O)OC(C)C)cc86)C7)c(OC)cc5N(C)[C@H]4[C@@](O)(C(=O)OC)[C@@H]1OC(C)=O)[C@@H]32 | 3260 nM |
| CC[C@]12C=CCN3CC[C@@]4(c5cc([C@@]6(C(=O)OC)C[C@H]7C[C@@H](C(C)(F)F)CN(Cc8c6[nH]c6ccc(-c9ccc(C#N)cc9)cc86)C7)c(OC)cc5N(C)[C@H]4[C@@](O)(C(=O)OC)[C@@H]1OC(C)=O)[C@@H]32 | 2500 nM |
| CC[C@]12C=CCN3CC[C@@]4(c5cc([C@@]6(C(=O)OC)C[C@H]7C[C@@H](C(C)(F)F)CN(CCc8c6[nH]c6ccc(NS(C)(=O)=O)cc86)C7)c(OC)cc5N(C)[C@H]4[C@@](O)(C(=O)OC)[C@@H]1OC(C)=O)[C@@H]32 | 320 nM |

| Compound | IC50 |
| --- | --- |
| CC[C@]12C=CCN3CC[C@@]4(c5cc([C@@]6(C(=O)OC)C[C@H]7C[C@@H](C(C)(F)F)CN(Cc8c6[nH]c6ccc(NC(=S)NC9CC9)cc86)C7)c(OC)cc5N(C)[C@H]4[C@@](O)(C(=O)OC)[C@@H]1OC(C)=O)[C@@H]32 | 27500 nM |
| C#Cc1ccc2[nH]c3c(c2c1)CCN1C[C@H](C[C@@H](C(C)(F)F)C1)C[C@]3(C(=O)OC)c1cc2c(cc1OC)N(C)[C@H]1[C@@](O)(C(=O)OC)[C@H](OC(C)=O)[C@]3(CC)C=CCN4CC[C@]21[C@@H]43 | 50 nM |
| CC[C@]12C=CCN3CC[C@@]4(c5cc([C@@]6(C(=O)OC)C[C@H]7C[C@@H](C(C)(F)F)CN(CCc8c6[nH]c6ccc(N9CCCC9)cc86)C7)c(OC)cc5N(C)[C@H]4[C@@](O)(C(=O)OC)[C@@H]1OC(C)=O)[C@@H]32 | 640 nM |
| CC[C@]12C=CCN3CC[C@@]4(c5cc([C@@]6(C(=O)OC)C[C@H]7C[C@@H](C(C)(F)F)CN(Cc8c6[nH]c6ccc(-c9ccccc9Cl)cc86)C7)c(OC)cc5N(C)[C@H]4[C@@](O)(C(=O)OC)[C@@H]1OC(C)=O)[C@@H]32 | 1010 nM |
| CC[C@]12C=CCN3CC[C@@]4(c5cc([C@@]6(C(=O)OC)C[C@H]7C[C@@H](C(C)(F)F)CN(Cc8c6[nH]c6ccc(-c9ccccc9C(F)(F)F)cc86)C7)c(OC)cc5N(C)[C@H]4[C@@](O)(C(=O)OC)[C@@H]1OC(C)=O)[C@@H]32 | 290 nM |
| CC[C@]12C=CCN3CC[C@@]4(c5cc([C@@]6(C(=O)OC)C[C@H]7C[C@@H](C(C)(F)F)CN(CCc8c6[nH]c6ccc(C(=O)OC)cc86)C7)c(OC)cc5N(C)[C@H]4[C@@](O)(C(=O)OC)[C@@H]1OC(C)=O)[C@@H]32 | 8730 nM |
| CC[C@]12C=CCN3CC[C@@]4(c5cc([C@@]6(C(=O)OC)C[C@H]7C[C@@H](C(C)(F)F)CN(CCc8c6[nH]c6ccc(C)cc86)C7)c(OC)cc5N(C)[C@H]4[C@@](O)(C(=O)OC)[C@@H]1OC(C)=O)[C@@H]32 | 37 nM |
| CC[C@]12C=CCN3CC[C@@]4(c5cc([C@@]6(C(=O)OC)C[C@H]7C[C@@H](C(C)(F)F)CN(Cc8c6[nH]c6ccc(NC(=O)C(F)(F)F)cc86)C7)c(OC)cc5N(C)[C@H]4[C@@](O)(C(=O)OC)[C@@H]1OC(C)=O)[C@@H]32 | 1810 nM |
| CC[C@]12C=CCN3CC[C@@]4(c5cc([C@@]6(C(=O)OC)C[C@H]7C[C@@H](C(C)(F)F)CN(Cc8c6[nH]c6ccc(-c9ccc(F)cc9F)cc86)C7)c(OC)cc5N(C)[C@H]4[C@@](O)(C(=O)OC)[C@@H]1OC(C)=O)[C@@H]32 | 1020 nM |
| CC[C@]12C=CCN3CC[C@@]4(c5cc([C@@]6(C(=O)OC)C[C@H]7C[C@@H](C(C)(F)F)CN(Cc8c6[nH]c6ccc(NC(=O)C(Cl)Cl)cc86)C7)c(OC)cc5N(C)[C@H]4[C@@](O)(C(=O)OC)[C@@H]1OC(C)=O)[C@@H]32 | 200 nM |
| CC[C@]12C=CCN3CC[C@@]4(c5cc([C@@]6(C(=O)OC)C[C@H]7C[C@@H](C(C)(F)F)CN(Cc8c6[nH]c6ccc(C(=O)OCc9ccccc9)cc86)C7)c(OC)cc5N(C)[C@H]4[C@@](O)(C(=O)OC)[C@@H]1OC(C)=O)[C@@H]32 | 280 nM |
| CC[C@]12C=CCN3CC[C@@]4(c5cc([C@@]6(C(=O)OC)C[C@H]7C[C@@H](C(C)(F)F)CN(CCc8c6[nH]c6ccc(-c9ccc(C)cc9)cc86)C7)c(OC)cc5N(C)[C@H]4[C@@](O)(C(=O)OC)[C@@H]1OC(C)=O)[C@@H]32 | 560 nM |
| CC[C@]12C=CCN3CC[C@@]4(c5cc([C@@]6(C(=O)OC)C[C@H]7C[C@@H](C(C)(F)F)CN(Cc8c6[nH]c6ccc(NC(=O)OC)cc86)C7)c(OC)cc5N(C)[C@H]4[C@@](O)(C(=O)OC)[C@@H]1OC(C)=O)[C@@H]32 | 420 nM |
| CC[C@]12C=CCN3CC[C@@]4(c5cc([C@@]6(C(=O)OC)C[C@H]7C[C@@H](C(C)(F)F)CN(CCc8c6[nH]c6ccc(-c9ccccc9)cc86)C7)c(OC)cc5N(C)[C@H]4[C@@](O)(C(=O)OC)[C@@H]1OC(C)=O)[C@@H]32 | 2160 nM |
| C=CCNc1ccc2[nH]c3c(c2c1)CN1C[C@H](C[C@@H](C(C)(F)F)C1)C[C@]3(C(=O)OC)c1cc2c(cc1OC)N(C)[C@H]1[C@@](O)(C(=O)OC)[C@H](OC(C)=O)[C@]3(CC)C=CCN4CC[C@]21[C@@H]43 | 510 nM |
| CC[C@]12C=CCN3CC[C@@]4(c5cc([C@@]6(C(=O)OC)C[C@H]7C[C@@H](C(C)(F)F)CN(Cc8c6[nH]c6ccc(-c9ccsc9)cc86)C7)c(OC)cc5N(C)[C@H]4[C@@](O)(C(=O)OC)[C@@H]1OC(C)=O)[C@@H]32 | 3000 nM |
| CC[C@]12C=CCN3CC[C@@]4(c5cc([C@@]6(C(=O)OC)C[C@H]7C[C@@H](C(C)(F)F)CN(Cc8c6[nH]c6ccc(NC(N)=O)cc86)C7)c(OC)cc5N(C)[C@H]4[C@@](O)(C(=O)OC)[C@@H]1OC(C)=O)[C@@H]32 | > 100000 nM |
| CC[C@]12C=CCN3CC[C@@]4(c5cc([C@@]6(C(=O)OC)C[C@H]7C[C@@H](C(C)(F)F)CN(Cc8c6[nH]c6ccc(N=[N+]=[N-])cc86)C7)c(OC)cc5N(C)[C@H]4[C@@](O)(C(=O)OC)[C@@H]1OC(C)=O)[C@@H]32 | 160 nM |
| CC[C@]12C=CCN3CC[C@@]4(c5cc([C@@]6(C(=O)OC)C[C@H]7C[C@@H](C(C)(F)F)CN(Cc8c6[nH]c6ccc(NC(=O)NC)cc86)C7)c(OC)cc5N(C)[C@H]4[C@@](O)(C(=O)OC)[C@@H]1OC(C)=O)[C@@H]32 | 35100 nM |
